Measured values as given in patent US5183743A, “Chromogenic dibenzoxazepinone and dibenzothiazepinone enzyme substrates” (Miles Inc., priority 1991, dated 1993).

Assays:
[1] = UV/visible absorption in 50 mM phosphate buffer pH 7.4 containing 5 mM MgCl2; format: physicochemical; conditions: 50 mM phosphate buffer pH 7.4, 5 mM MgCl2
Protocol: (§1) When dissolved in 50 mM phosphate buffer at pH 7.4 containing 5 mM magnesium chloride (MgCl2) compound (23)+(24) (mixture) had λmax of 454 nm (ε =22,000) and 344 nm (ε =14,000).

β-galactosidase = test: enzymatic cleavage of substrate to (20) by β-galactosidase; format: biochemical; conditions: in the presence of β-galactosidase
Protocol: as §1

[2] = protonated vs deprotonated form; cited from earlier work

| Molecule | ε at λmax 344 nm ([1]; 344 nm) | ε at λmax 454 nm ([1]; 454 nm) | λmax ([1]; long-wavelength maximum) [nm] | λmax ([1]; second maximum) [nm] | Km (β-galactosidase) [µM] | rate (Kcat) of cleavage to (20) (β-galactosidase) | shift in absorption (λmax) between the protonated form and the deprotonated form [2] [nm] |
| --- | --- | --- | --- | --- | --- | --- | --- |
| 8-β-D-Galactopyranosyloxy-11-methyl-11H-dibenz[b,e][1,4]oxazepin-1-one(23) and 2-β-D-galactopyranosyloxy-11-methyl-11H-dibenz[b,e][-1,4]oxazepin-8-one (24) [(23)+(24)] | 14,000 | 22,000 | 454 | 344 | 75 | 1.32×10^4 mol. min^-1 /mol. active site | – |
| CC1Oc2cc(O)ccc2N=C2C=CC(=O)C=C21 (stereo not shown) [(20)] | – | – | – | – | – | – | 122 |
